{"source": "patent US20050063935A1", "about": "“Adsorbent for cytokine, method of adsorptive removal, and apparatus adsorptive removal” (priority 2002, published 2005)", "origin": "cited, not measured here", "settings": "octanol-water system; free ligand compound before immobilization"}
{"compound": "CCCCN", "note": "[n-butylamine]", "values": [{"measurement": "log P", "result": 0.97}]}
{"compound": "CCCCCCCCN", "note": "[n-octylamine]", "values": [{"measurement": "log P", "result": 2.90}]}
